From US7592366B2, “Therapeutic compounds” (Allergan, Inc., priority 2006, dated 2009) come the findings set out here.

Where only a bound is given, the exact number is not on record here.

One series deals with normotensive dogs. Briefly: Intraocular pressure and ocular surface hyperemia in normotensive dogs. More on the design: scale not given here. It counts as in vivo, dog. The text has this:
U.S. Pat. No. 7,091,231 describes the methods used for these in vivo tests.

For the next series, the target named is T1, EP4 receptors (Homo sapiens, UniProt P35408).
T1 construct: expressed in transfected cells; host or cells: HEK-293
T1 sequence (P35408 whole entry): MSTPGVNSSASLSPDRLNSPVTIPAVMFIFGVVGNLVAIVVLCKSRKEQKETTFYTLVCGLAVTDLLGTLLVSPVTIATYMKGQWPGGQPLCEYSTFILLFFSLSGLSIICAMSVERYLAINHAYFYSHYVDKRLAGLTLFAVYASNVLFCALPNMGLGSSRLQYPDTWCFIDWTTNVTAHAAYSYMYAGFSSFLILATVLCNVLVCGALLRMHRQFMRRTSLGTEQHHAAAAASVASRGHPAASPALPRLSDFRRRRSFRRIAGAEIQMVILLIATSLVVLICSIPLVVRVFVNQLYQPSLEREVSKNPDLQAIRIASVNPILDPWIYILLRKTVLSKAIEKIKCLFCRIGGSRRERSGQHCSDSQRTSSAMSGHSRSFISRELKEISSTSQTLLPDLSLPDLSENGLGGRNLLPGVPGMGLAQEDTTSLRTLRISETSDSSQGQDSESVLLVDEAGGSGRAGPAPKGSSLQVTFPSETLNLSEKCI
Description: Radioligand binding [3H]PGE2, EP4 Ki. As to conditions: [3H]PGE2 competition, HEK-293 cells expressing EP4. On the procedure:
(§1) HEK-293 cells stably expressing the human or feline FP receptor, or EP1, EP2, or EP4 receptors were washed with TME buffer, scraped from the bottom of the flasks, and homogenized for 30 sec using a Brinkman PT 10/35 polytron. TME buffer was added to achieve a final 40 ml volume in the centrifuge tubes (the composition of TME is 100 mM TRIS base, 20 mM MgCl2, […]; 10N HCl is added to achieve a pH of 7.4).
(§2) The cell homogenate was centrifuged at 19000 r.p.m. for 20 min at 4° C. using a Beckman Ti-60 rotor. The resultant pellet was resuspended in TME buffer to give a final 1 mg/ml protein concentration, as determined by Biorad assay. Radioligand binding competition assays vs. [^3H-]17-phenyl PGF2α (5 nM) were performed in a 100 μl volume for 60 min. Binding reactions were started by adding plasma membrane fraction. The reaction was terminated by the addition of 4 ml ice-cold TRIS-HCl buffer and rapid filtration through glass fiber GF/B filters using a Brandel cell harvester. The filters were washed 3 times with ice-cold buffer and oven dried for one hour.
(§3) [^3H-] PGE2 (specific activity 180 Ci mmol) was used as the radioligand for EP receptors. [^3H] 17-phenyl PGF2α was employed for FP receptor binding studies. Binding studies employing EP1, EP2, EP4 and FP receptors were performed in duplicate in at least three separate experiments. A 200 μl assay volume was used. Incubations were for 60 min at 25° C. and were terminated by the addition of 4 ml of ice-cold 50 mM TRIS-HCl, followed by rapid filtration through Whatman GF/B filters and three additional 4 ml washes in a cell harvester (Brandel). Competition studies were performed using a final concentration of 5 nM [^3H]-PGE2, or 5 nM [^3H] 17-phenyl PGF2α and non-specific binding determined with 10^−5M of unlabeled PGE2, or 17-phenyl PGF2α, according to receptor subtype studied.

For another series, the target named is T2, hEP2/Gqs5 (Homo sapiens, UniProt P43116).
T2 construct: expressed in transfected cells; host or cells: HEK-293(EBNA)
T2 sequence (P43116 whole entry): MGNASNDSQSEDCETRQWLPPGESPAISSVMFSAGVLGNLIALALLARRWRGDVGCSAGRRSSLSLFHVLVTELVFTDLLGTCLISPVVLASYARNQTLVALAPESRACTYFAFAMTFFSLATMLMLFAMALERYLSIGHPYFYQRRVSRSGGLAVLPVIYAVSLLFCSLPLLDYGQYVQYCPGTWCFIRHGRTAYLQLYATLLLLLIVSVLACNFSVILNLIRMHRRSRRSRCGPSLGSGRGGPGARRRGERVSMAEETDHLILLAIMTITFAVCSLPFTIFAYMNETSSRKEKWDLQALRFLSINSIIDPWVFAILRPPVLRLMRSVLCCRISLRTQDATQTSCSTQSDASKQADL
Briefly: FLIPR calcium signal, EP2. It counts as cell-based. The conditions noted are these: HEK-293(EBNA) cells. The protocol: (§4) HEK-293(EBNA) cells, stably expressing one type or subtype of recombinant human prostaglandin receptors (prostaglandin receptors expressed: hDP/Gqs5; hEP1; hEP2/Gqs5; hEP3A/Gqi5; hEP4/Gqs5; hFP; hIP; hTP), were cultured in 100 mm culture dishes in high-glucose DMEM medium containing 10% fetal bovine serum, 2 mM l-glutamine, 250 μg/ml geneticin (G418) and 200 μg/ml hygromycin B as selection markers, and 100 units/ml penicillin G, 100 μg/ml streptomycin and 0.25 μg/ml amphotericin B.
(§5) Cells were seeded at a density of 5×10^4 cells per well in Biocoat® Poly-D-lysine-coated black-wall, clear-bottom 96-well plates (Becton-Dickinson) and allowed to attach overnight in an incubator at 37° C. Cells were then washed two times with HBSS-HEPES buffer (Hanks Balanced Salt Solution without bicarbonate and phenol red, 20 mM HEPES, pH 7.4) using a Denley Cellwash plate washer (Labsystems). After 45 minutes of dye-loading in the dark, using the calcium-sensitive dye Fluo-4 […] at a final concentration of 2 μM, plates were washed four times with HBSS-HEPES buffer to remove excess dye leaving 100 μl in each well. Plates were re-equilibrated to 37° C. for a few minutes.
(§6) Cells were excited with an Argon laser at 488 nm, and emission was measured through a 510-570 nm bandwidth emission filter (FLIPR™, Molecular Devices, Sunnyvale, Calif.). Drug solution was added in a 50 μl volume to each well to give the desired final concentration. The peak increase in fluorescence intensity was recorded for each well. On each plate, four wells each served as negative (HBSS-HEPES buffer) and positive controls (standard agonists: BW245C (hDP); PGE2 (hEP1; hEP2/Gqs5; hEP3A/Gqi5; hEP4/Gqs5); PGF2α (hFP); carbacyclin (hIP); U-46619 (hTP), depending on receptor). The peak fluorescence change in each drug-containing well was then expressed relative to the controls.
(§7) Compounds were tested in a high-throughput (HTS) or concentration-response (CoRe) format. In the HTS format, forty-four compounds per plate were examined in duplicates at a concentration of 10^−5 M. To generate concentration-response curves, four compounds per plate were tested in duplicates in a concentration range between 10^−5 and 10^−11 M. The duplicate values were averaged. In either, HTS or CoRe format each compound was tested on at least 3 separate plates using cells from different passages to give an n≧3.

A further series deals with T3, hTP (Homo sapiens, UniProt P21731).
T3 construct: expressed in transfected cells; host or cells: HEK-293(EBNA)
T3 sequence (P21731 1-343): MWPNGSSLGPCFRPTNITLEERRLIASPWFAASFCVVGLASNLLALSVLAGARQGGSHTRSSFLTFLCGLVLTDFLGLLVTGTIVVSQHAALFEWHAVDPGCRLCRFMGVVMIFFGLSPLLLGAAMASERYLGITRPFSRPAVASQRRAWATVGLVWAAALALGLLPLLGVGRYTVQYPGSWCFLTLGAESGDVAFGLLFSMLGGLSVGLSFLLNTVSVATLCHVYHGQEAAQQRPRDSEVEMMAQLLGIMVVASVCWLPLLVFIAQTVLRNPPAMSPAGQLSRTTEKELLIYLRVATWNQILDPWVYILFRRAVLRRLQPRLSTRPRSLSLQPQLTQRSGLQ
Description: FLIPR calcium signal, hTP. It counts as cell-based. The conditions noted are these: read-out: Other Receptors (EC50 in nM) hTP. The protocol: as §4, §5, §6
Compounds were tested in a high-throughput (HTS) or concentration-response (CoRe) format. […]

The target in a further series is T4, hEP4/Gqs5 (Homo sapiens, UniProt P35408).
T4 construct: expressed in transfected cells; host or cells: HEK-293(EBNA)
T4 sequence (P35408 whole entry): as the sequence (P35408 whole entry) above
Briefly: FLIPR calcium signal, EP4. It counts as cell-based. The conditions noted are these: HEK-293(EBNA) cells. On the procedure:
as §4, §5, §6, §7

For series [1], the target named is T5, EP2 (Homo sapiens, UniProt P43116). Briefly: Competition binding [3H]PGE2, EP2 Ki. The arrangement: expressed in transfected cells; host or cells: HEK 293. The conditions noted are these: [3H]PGE2 competition, HEK 293 cells expressing human EP2. The protocol:
Competition binding experiments were performed in a medium containing Hank's balanced salt solution, Hepes 20 mM, pH 7.3, membranes (˜60 μg protein) or 2×10^5 cells from HEK 293 cells stably expressing human EP2 receptors, [^3H]PGE2 (10 nM) and various concentrations of test compounds in a total volume of 300 μl. Reaction mixtures were incubated at 23° C. for 60 min, and were filtered over Whatman GF/B filters under vacuum. Filters were washed three times with 5 ml ice-cold buffer containing 50 mM Tris/HCl (pH 7.3). Non-specific binding was estimated in the presence of excess unlabeled PGE2 (10 μM). Binding data fitted to the binding model for a single class of binding sites, using nonlinear regression analysis. IC50 values thus obtained were converted to Ki using the equation of Ki=(IC50/(1+[L]/KD) where [L] represents PGE2 concentration (10 nM) and KD the dissociation constant for [^3H]PGE2 at human EP2 receptors (40 nM).
as §1, §2, §3

Series [2] concerns the target T5, EP2. Briefly: cAMP assay, EP2. As to conditions: HEK-EBNA cells expressing EP2. The arrangement: expressed in transfected cells; host or cells: HEK-EBNA. It is filed as cell-based. The protocol:
A 384-well drug plate was prepared to contain 6 test compounds, PGE2 and cAMP in 16 serial dilutions in triplicate, using a Biomek station. HEK-EBNA cells expressing a target PG receptor subtype (EP2 or EP4) were suspended in a stimulation buffer (HBSS, 0.1% BSA, 0.5 mM IBMX and 5 mM HEPES, pH 7.4) in a density of 10^4 cells/5 μl. The reaction was initiated by mixing 5 μL drug dilutions with 5 μl of HEK-EBNA cells in a well, carried out for 30 min at room temperature, and followed by the addition of 5 μl anti-cAMP acceptor beads in the control buffer with Tween-20 (25 mM NaCl, 0.03% Tween-20, 5 mM HEPES, pH7.4). After 30 min in the dark at room temperature, the mixtures were incubated with 15 μl biotinylated-cAMP/strepavidin donor beads in Lysis/Detection buffer (0.1% BSA, 0.3% Tween-20 and 5 mM HEPES, pH7.4) for 45 min at the room temperature. Fluorescence changes were read using a Fusion-alpha HT microplate reader.
A general note: Cyclic AMP is a second messenger, typically raised through Gs and lowered through Gi signalling.

A further series deals with T6, hDP/Gqs5 (Homo sapiens, UniProt Q13258).
T6 construct: expressed in transfected cells; host or cells: HEK-293(EBNA)
T6 sequence (Q13258 1-359): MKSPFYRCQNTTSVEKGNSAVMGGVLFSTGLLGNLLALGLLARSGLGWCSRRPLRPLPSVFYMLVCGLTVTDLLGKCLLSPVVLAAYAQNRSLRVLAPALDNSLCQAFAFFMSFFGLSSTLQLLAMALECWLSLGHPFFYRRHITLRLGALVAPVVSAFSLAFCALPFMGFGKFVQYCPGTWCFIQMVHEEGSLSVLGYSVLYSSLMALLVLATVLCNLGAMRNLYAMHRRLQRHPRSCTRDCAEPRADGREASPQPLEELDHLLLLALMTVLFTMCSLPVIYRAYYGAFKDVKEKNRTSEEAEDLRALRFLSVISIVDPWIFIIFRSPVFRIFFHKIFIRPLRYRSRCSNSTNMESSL
Description: FLIPR calcium signal, hDP. The conditions noted are these: read-out: Other Receptors (EC50 in nM) hDP. It is filed as cell-based. The protocol: as §4, §5, §6, §7

Where [3] appears, read: 0.001%, once daily for 5 days, at 50 h.

T5 sequence (P43116 whole entry): as the sequence (P43116 whole entry) above

Turning to `O=C(O)c1ccc(CCC[C@@H]2[C@@H](CCc3cc(Cl)cc(Cl)c3)[C@H](O)C[C@H]2Cl)s1` [11a, 5-(3-((1R,2R,3R,5R)-5-chloro-2-(3,5-dichlorophenethyl)-3-hydroxycyclopentyl)propyl)thiophene-2-carboxylic acid], the “maximum ocular surface hyperemia (OSH) score” value was 0.8 in the series with normotensive dogs (0.0001%, once daily for 5 days, at 74 h); 1.75 with normotensive dogs (0.0005%, once daily for 5 days, at 50 h); 1.8 in the series on normotensive dogs (setting [3]); 2.5 in the series with normotensive dogs (0.01%, once daily for 5 days, at 26 h). Moreover, the inhibition constant (Ki) on EP4 receptors stood at 616 nM; on EP2 [1], 0.2 nM. The EC50 at hEP2/Gqs5 was 18 nM; on hTP, more than 10000 nM; on hEP4/Gqs5, more than 10000 nM; at EP2 [2] it was 0.09 nM.

As to `O=C(O)c1ccc(CCC[C@@H]2[C@@H](CCc3cc(Cl)nc(Cl)c3)[C@H](O)C[C@H]2Cl)s1` [11b, 5-(3-((1R,2R,3R,5R)-5-chloro-2-(2-(2,6-dichloropyridin-4-yl)ethyl)-3-hydroxycyclopentyl)propyl)-thiophene-2-carboxylic acid], the “maximum ocular surface hyperemia (OSH) score” value in the series with normotensive dogs (0.001%, once daily for 4 days, at 74 h) is 1.9. In addition, the inhibition constant (Ki) at EP4 receptors stood at 582 nM; at EP2 [1] it was 1 nM. Besides, the results for the EC50 on hEP2/Gqs5, on hEP4/Gqs5 and at EP2 [2] were 13 nM, more than 10000 nM and 0.05 nM, respectively.

Turning to `O=C(O)c1ccc(CCC[C@@H]2[C@@H](CCc3cc(Cl)cc(CO)c3)[C@H](O)C[C@H]2Cl)s1` [11c, 5-(3-((1R,2R,3R,5R)-5-chloro-2-(3-chloro-5-(hydroxymethyl)phenethyl)-3-hydroxycyclopentyl)propyl)thiophene-2-carboxylic acid], the “maximum ocular surface hyperemia (OSH) score” value in the series on normotensive dogs (setting [3]) stood at 0.8. The figures for the Ki at EP4 receptors and on EP2 [1] were 437 nM and 1 nM, respectively. Besides, the EC50 is 86 nM on hEP2/Gqs5, more than 10000 nM at hEP4/Gqs5, 2940 nM on hDP/Gqs5 and 0.08 nM at EP2 [2].

For `Cc1cc(C)cc(CC[C@@H]2[C@@H](CCCc3ccc(C(=O)O)s3)[C@H](Cl)C[C@H]2O)c1` [11e, 5-(3-((1R,2R,3R,5R)-5-chloro-2-(3,5-dimethylphenethyl)-3-hydroxycyclopentyl)propyl)thiophene-2-carboxylic acid], the inhibition constant (Ki) on EP4 receptors was 966 nM; at EP2 [1] it was 3 nM. Also, the EC50 on hEP2/Gqs5 was 287 nM; on hEP4/Gqs5, more than 10000 nM; at hDP/Gqs5, 15300 nM; at EP2 [2], 0.4 nM.

For `OCc1ccc(CCC[C@@H]2[C@@H](CCc3cc(Cl)cc(Cl)c3)[C@H](O)C[C@H]2Cl)s1` [compound 13, (1R,2R,3R,4R)-4-chloro-2-(3,5-dichlorophenethyl)-3-(3-(5-(hydroxymethyl)thiophen-2-yl)propyl)cyclopentanol], the inhibition constant Ki on EP4 receptors is more than 10000 nM; on EP2 [1] it was 502 nM. In addition, the figures for the EC50 on hEP2/Gqs5 and at EP2 [2] were 10200 nM and 284 nM, respectively.

For the compound `CC(C)OC(=O)c1ccc(CCC[C@@H]2[C@@H](CCc3cc(Cl)cc(CO)c3)[C@H](O)C[C@H]2Cl)s1` [compound 18, Isopropyl 5-(3-((1R,2R,3R,5R)-5-chloro-2-(3-chloro-5-(hydroxymethyl)phenethyl)-3-hydroxycyclopentyl)propyl)thiophene-2-carboxylate], in the series with normotensive dogs (0.001%, once daily for 5 days, at 26 h), the “maximum ocular surface hyperemia (OSH) score” value was found to be 0.9.

In general, Ki refers to the equilibrium dissociation constant of an inhibitor or competing ligand from its target. A word on the EC50: it is the concentration at which the effect is half-maximal.
